Assay results from patent US6780871B2, “Methods and compositions for treating addiction disorders” (Albany Medical College, priority 2001, dated 2004).

Assays:
Format in all cases: in vivo, rat
[1] = system: morphine self-administration; test: intravenous morphine self-administration; conditions: 18-methoxycoronaridine 1 mg/kg i.p., dextromethorphan 5 mg/kg s.c.
Experimental: Dextromethorphan hydrobromide (5 mg/kg; Sigma/RBI, St. Louis, Mo.) was dissolved in saline and injected subcutaneously 20 minutes before testing. Mecamylamine hydrochloride (1 mg/kg; Sigma/RBI, St. Louis, Mo.) was dissolved in physiological saline and injected intraperitoneally 30 minutes before testing. All rats received two injections. For rats that received a single drug, half of them also received the appropriate saline/vehicle injection corresponding to each of the other two drugs.
Naive female Long-Evans derived rats (250 g; Charles River, N.Y.) were maintained on a normal 12 h light cycle (lights on at 7:00 a.m., lights off at 7:00 p.m.). For all experiments the “Principles of Laboratory Animal Care” (NIH publication No. 85-23, revised 1985, which is hereby incorporated by reference) were followed.
The intravenous self-administration procedure described in Glick et al., “18-MC Reduces Methamphetamine and Nicotine Self-administration in Rats,” NeuroReport 11:2013-2015 (2000) (“Glick I”), which is hereby incorporated by reference, was employed. Briefly, responses on either of two levers (mounted 15 cm apart on the front wall of each operant test cage) were recorded on an IBM compatible computer with a Med Associates, Inc. interface. The intravenous self-administration system consisted of polyethylene-silicone cannulas constructed according to the design of Weeks, “Long-term Intravenous Infusion,” pp. 155-168 in Myers (ed.), Methods in Psychobiology, Vol. 2, New York: Academic Press (1972) (“Weeks”), which is hereby incorporated by reference; Instech harnesses and swivels; and Harvard Apparatus infusion pumps (#55-2222). Shaping of the bar-press response was initially accomplished by training rats to bar-press for water. Cannulas were then implanted in the external jugular vein according to procedures described in Weeks, which is hereby incorporated by reference. Self-administration testing began with a 16-h nocturnal session followed by daily 1-h sessions, 5 days (Monday-Friday) a week. A lever-press response produced a 10 μl infusion of drug solution (0.01 mg of morphine sulfate) in about 0.2 s or a 50 μl infusion of drug solution (0.025 mg of methamphetamine sulfate) in about 1 s. Since all rats generally weighed 250±20 g, each response delivered approximately 0.04 mg/kg of morphine or 0.1 mg/kg of methamphetamine. Experiments to assess the effects of experimental treatments were begun when baseline self-administration rates stabilized (≦10% variation from one day to the next across 5 days), usually after 2 weeks of testing.
Each data point represents the mean (±S.E.M.) percent of baseline of 6-8 rats. Significant differences between baseline and treatment are indicated by an asterisk (paired t-test, P<0.01-0.001).
Each data point represents the mean (±S.E.M.) percent of baseline of 5-8 rats. Significant differences between baseline and treatment are indicated by an asterisk (paired t-test), P<0.05-0.01).

[2] = system: methamphetamine self-administration; test: intravenous methamphetamine self-administration
responding for water = test: bar-pressing (responding) for water; conditions: dose of 3 mg/kg, alone, data not shown
[3] = system: nicotine self-administration; test: nicotine self-administration; conditions: Example 7, FIGS. 11-12: mecamylamine 0.1 mg/kg i.p., 18-methoxycoronaridine 0.5 mg/kg i.p., dextromethorphan 0.5 mg/kg s.c., bupropion 5 mg/kg i.p.; 5-8 rats

## CNC1(C)C2CCC(C2)C1(C)C (stereo not drawn) [mecamylamine]
[1]; Example 5, FIG. 5: mecamylamine 1 mg/kg i.p., 6-8 rats
  effect on morphine self-administration (percent of baseline): none of the drugs administered alone, significantly decreased
[1]; Example 6, FIG. 8: mecamylamine 1 mg/kg i.p., bupropion 5 mg/kg i.p., 5-8 rats
  effect on morphine self-administration (percent of baseline): none of the drugs administered alone, significantly decreased
[2]; Example 5, FIG. 6: mecamylamine 1 mg/kg i.p., 18-methoxycoronaridine 2 mg/kg i.p., dextromethorphan 5 mg/kg s.c., 6-7 rats
  effect on methamphetamine self-administration (percent of baseline): none of the drugs administered alone, significantly decreased
[2]; Example 6, FIG. 9: mecamylamine 1 mg/kg i.p., 18-methoxycoronaridine 5 mg/kg i.p., dextromethorphan 10 mg/kg s.c., bupropion 10 mg/kg i.p., 5-9 rats
  effect on methamphetamine self-administration (percent of baseline): none of the drugs administered alone, significantly decreased
Responding for water
  effect on responding for water: decreases responding for water
[3]
  effect on nicotine self-administration (percent of baseline): none of the drugs administered alone, significantly decreased
